Data: patent publication EP4789665A1, “TREATMENT OF HIS HYPORESPONDERS” (NewAmsterdam Pharma B.V., priority 2021, dated 2023)
Where two headings read alike, the source gives them in different places.

Columns and labels:
CETP = target: T1, CETP (Homo sapiens, UniProt P11597); details: TULIP, cited from earlier work
T1 construct: endogenous in cells; host or cells: trial patients (in vivo, circulating plasma CETP)
T1 sequence (P11597 18-493): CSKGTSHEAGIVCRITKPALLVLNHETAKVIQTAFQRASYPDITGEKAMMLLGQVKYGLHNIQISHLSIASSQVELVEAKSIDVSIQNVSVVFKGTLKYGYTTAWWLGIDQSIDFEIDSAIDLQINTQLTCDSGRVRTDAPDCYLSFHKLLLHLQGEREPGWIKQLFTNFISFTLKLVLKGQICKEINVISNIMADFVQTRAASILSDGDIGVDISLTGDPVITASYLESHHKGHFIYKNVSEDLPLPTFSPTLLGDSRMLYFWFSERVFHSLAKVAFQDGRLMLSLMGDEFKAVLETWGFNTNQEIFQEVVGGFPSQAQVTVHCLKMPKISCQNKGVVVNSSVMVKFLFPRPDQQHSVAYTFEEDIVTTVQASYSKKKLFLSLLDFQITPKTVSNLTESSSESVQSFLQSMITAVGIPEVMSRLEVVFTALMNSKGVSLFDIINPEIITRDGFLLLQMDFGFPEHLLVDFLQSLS

[1] = Phase 2 study of obicetrapib as adjunct to high-intensity statin therapy: safety and tolerability (adverse events, laboratory values, vital signs); type: in vivo, human; details: for Neoplasms benign, malignant and unspecified: including cysts and polyps; for AEs, total: subjects (%): safety population
Experimental: Patients were randomly assigned to receive one of the three treatments investigative treatments. All treatments were to be taken once daily with food for 8 weeks. Safety was assessed throughout the trial by monitoring adverse events and concomitant medication use, 12-lead electrocardiograms (ECGs), vital signs, laboratory safety assessments and physical examinations. Additional assessments included salivary cortisol, plasma aldosterone, high-sensitivity C-reactive protein (hsCRP) and endothelin 1.
Safety and tolerability profiles of obicetrapib assessed by clinical laboratory values and incidence of adverse events (AEs).
(§1) The primary outcome measure was LDL-C (percent change). Secondary outcome measures included ApoB, Non-HDL-C and HDL-C (percent change). The Intent-to-Treat (ITT) Population included all participants randomized into the study. The Modified ITT (mITT) Population included all participants in the ITT Population who receive at least 1 dose of any study drug and have a baseline value for the LDL-C assessment. The Safety Population included all participants who receive at least 1 dose of any study drug. The mITT Population was the primary population for the efficacy analyses. The primary efficacy analysis of the percent change in LDL-C was performed using a mixed model for repeated measures (MMRM) approach. In order to maintain the overall Type I error rate, the secondary efficacy endpoints were tested sequentially at the 0.05 significance level according to the pre-specified order of hierarchy. All safety endpoints were summarized descriptively. No statistical inference was applied to the safety endpoints. Plasma obicetrapib concentrations were summarized with descriptive statistics based on the PK Population.

[2] = Phase 2 study: plasma obicetrapib concentrations during PK follow-up after end of treatment; type: in vivo, human
Experimental: The screening period for this study took up to 2-weeks. Afterwards patients were randomized to placebo, 5 mg obicetrapib or 10 mg obicetrapib for an 8-week treatment period. After the treatment period, patients continued for a 4-week safety follow-up and a 15-week PK follow-up.
as §1

[3] = 5 mg group (N=40), listed as obicetrapib
[4] = 10 mg group (N=40), listed as obicetrapib
[5] = either obicetrapib treatment group (5 mg, 10 mg) compared with placebo

SMILES: CCOC(=O)N1c2ccc(C(F)(F)F)cc2[C@@H](N(Cc2cc(C(F)(F)F)cc(C(F)(F)F)c2)c2ncc(OCCCC(=O)O)cn2)C[C@H]1CC [Obicetrapib, (2R,4S)-4-{[3,5-bis(trifluoromethyl)benzyl]-[5-(3-carboxypropoxy)pyrimidin-2-yl]amino}-2-ethyl-6-trifluoromethyl-3,4-dihydro-2H-quinoline-1-carboxylic acid ethyl ester]
- LDL-C reductions (CETP; 1 mg for 12 weeks, mild dyslipidemia): 27%
- LDL-C reductions (CETP; 2.5 mg for 12 weeks, mild dyslipidemia): 33%
- LDL-C reductions (CETP; 5 mg for 12 weeks, mild dyslipidemia): 45%
- incremental LDL-C reduction compared with statin monotherapy (CETP; 10 mg daily with 20 mg atorvastatin or 10 mg rosuvastatin, 12 weeks): up to 50%
- LDL-C reductions (CETP; 10 mg for 12 weeks, mild dyslipidemia): 45%
- LDL-C reductions (CETP; 10 mg obicetrapib plus 10 mg rosuvastatin): 63%
- LDL-C reductions (CETP; 10 mg obicetrapib plus 20 mg atorvastatin): 68%
- Basal cell carcinoma ([1]; 5 mg (n=40)): 0 (0.0) n (%)
- Fatigue ([1]; 5 mg (n=40)): 2 (5.0) n (%)
- Gastrointestinal disorders ([1]; 5 mg (n=40)): 3 (7.5) n (%)
- General disorders and administration site conditions ([1]; 5 mg (n=40)): 3 (7.5) n (%)
- Hypertension ([1]; 5 mg (n=40)): 2 (5.0) n (%)
- Infections and infestations ([1]; 5 mg (n=40)): 1 (2.5) n (%)
- Injury, poisoning and procedural complications ([1]; 5 mg (n=40)): 3 (7.5) n (%)
- Investigations ([1]; 5 mg (n=40)): 2 (5.0) n (%)
- Metabolism and nutrition disorders ([1]; 5 mg (n=40)): 2 (5.0) n (%)
- Muscle spasms ([1]; 5 mg (n=40)): 0 (0.0) n (%)
- Musculoskeletal and connective tissue disorders ([1]; 5 mg (n=40)): 4 (10.0) n (%)
- Nausea ([1]; 5 mg (n=40)): 1 (2.5) n (%)
- Nervous system disorders ([1]; 5 mg (n=40)): 2 (5.0) n (%)
- Respiratory, thoracic and mediastinal disorders ([1]; 5 mg (n=40)): 2 (5.0) n (%)
- Type 2 diabetes mellitus ([1]; 5 mg (n=40)): 2 (5.0) n (%)
- Vascular disorders ([1]; 5 mg (n=40)): 2 (5.0) n (%)
- Neoplasms benign, malignant and unspecified ([1]; 5 mg (n=40)): 0 (0.0) n (%)
- tolerability / safety profile ([1]; 5 mg and 10 mg on top of high intensity statin therapy): well tolerated with a safety profile similar to placebo
- AEs, related: number of events ([1]; 5 mg group (N=40)): 2
- AEs, related: subjects (%) ([1]; 5 mg group (N=40)): 2 (5.0)
- AEs, severe ([1]; 5 mg group (N=40)): 0
- AEs, total: number of events ([1]; 5 mg group (N=40)): 24
- Deaths ([1]; 5 mg group (N=40)): 0
- SAEs, related ([1]; 5 mg group (N=40)): 0
- SAEs, total ([1]; 5 mg group (N=40)): 0
- TEAEs leading to discontinuation of study drug ([1]; 5 mg group (N=40)): 0
- TESAEs leading to discontinuation of study ([1]; 5 mg group (N=40)): 0
- AEs, total: subjects (%) ([1]; 5 mg group (N=40)): 13 (32.5)
- AEs, total: subjects (%) [1, 3]: 15
- AEs, related: subjects (%) [1, 3]: 2
- Basal cell carcinoma ([1]; 10 mg (n=40)): 0 (0.0) n (%)
- Fatigue ([1]; 10 mg (n=40)): 1 (2.5) n (%)
- Gastrointestinal disorders ([1]; 10 mg (n=40)): 0 (0.0) n (%)
- General disorders and administration site conditions ([1]; 10 mg (n=40)): 2 (5.0) n (%)
- Hypertension ([1]; 10 mg (n=40)): 0 (0.0) n (%)
- Infections and infestations ([1]; 10 mg (n=40)): 0 (0.0) n (%)
- Injury, poisoning and procedural complications ([1]; 10 mg (n=40)): 1 (2.5) n (%)
- Investigations ([1]; 10 mg (n=40)): 0 (0.0) n (%)
- Metabolism and nutrition disorders ([1]; 10 mg (n=40)): 0 (0.0) n (%)
- Muscle spasms ([1]; 10 mg (n=40)): 0 (0.0) n (%)
- Musculoskeletal and connective tissue disorders ([1]; 10 mg (n=40)): 4 (10.0) n (%)
- Nausea ([1]; 10 mg (n=40)): 0 (0.0) n (%)
- Nervous system disorders ([1]; 10 mg (n=40)): 2 (5.0) n (%)
- Respiratory, thoracic and mediastinal disorders ([1]; 10 mg (n=40)): 0 (0.0) n (%)
- Type 2 diabetes mellitus ([1]; 10 mg (n=40)): 0 (0.0) n (%)
- Vascular disorders ([1]; 10 mg (n=40)): 0 (0.0) n (%)
- Neoplasms benign, malignant and unspecified ([1]; 10 mg (n=40)): 0 (0.0) n (%)
- AEs, related: number of events ([1]; 10 mg group (N=40)): 1
- AEs, related: subjects (%) ([1]; 10 mg group (N=40)): 1 (2.5)
- AEs, severe ([1]; 10 mg group (N=40)): 0
- AEs, total: number of events ([1]; 10 mg group (N=40)): 11
- Deaths ([1]; 10 mg group (N=40)): 0
- SAEs, related ([1]; 10 mg group (N=40)): 0
- SAEs, total ([1]; 10 mg group (N=40)): 0
- TEAEs leading to discontinuation of study drug ([1]; 10 mg group (N=40)): 0
- TESAEs leading to discontinuation of study ([1]; 10 mg group (N=40)): 0
- AEs, total: subjects (%) ([1]; 10 mg group (N=40)): 8 (20.0)
- AEs, total: subjects (%) [1, 4]: 8
- AEs, related: subjects (%) [1, 4]: 1
- laboratory parameters (chemistry, hematology, urinalysis) [1, 5]: no signals in any laboratory parameters
- vital signs [1, 5]: no changes in vital signs
- Plasma obicetrapib levels decreased by (median) ([2]; 5 mg group, 4 weeks after the end-of-treatment): 92%
- Plasma obicetrapib levels decreased by (median) ([2]; 5 mg group, 8 weeks after the end-of-treatment): 98%
- Plasma obicetrapib levels decreased by (median) ([2]; 5 mg group, 15 weeks after the end-of-treatment): 99%
- Plasma obicetrapib levels decreased by (median) ([2]; 10 mg group, 4 weeks after the end-of-treatment): 93%
- Plasma obicetrapib levels decreased by (median) ([2]; 10 mg group, 8 weeks after the end-of-treatment): 98%
- Plasma obicetrapib levels decreased by (median) ([2]; 10 mg group, 15 weeks after the end-of-treatment): 99%
- nearly completely cleared from circulation by (time post-treatment) ([2]; after 8 weeks of once daily treatment): 4-8 weeks
